The results in this text go back to PubChem BioAssay AID1645861 (Buhrlage Lab, Dana-Farber Cancer Institute and Novartis …, 2021).

This assay has as its target Ubiquitin carboxyl-terminal hydrolase 7 (Homo sapiens) (UniProt Q93009). Briefly: Biochemical concentration-response for ubiquitin-specific peptidase 7 DUB inhibitors, verifying primary hits (AID 1645861). As to conditions: purified USP7, Ub-rhodamine cleavage fluorescence, 60 min.

SMILES strings stand for the structures. Active and inactive are the calls of the source.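 Rule for the calls: active = compounds whose peak USP7 inhibition across the dose series reached 30% or more; inactive = the rest.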 Bounds are passed on as bounds.

Ubiquitin carboxyl-terminal hydrolase 7 (Homo sapiens), sequence (Q93009 whole entry, looked up): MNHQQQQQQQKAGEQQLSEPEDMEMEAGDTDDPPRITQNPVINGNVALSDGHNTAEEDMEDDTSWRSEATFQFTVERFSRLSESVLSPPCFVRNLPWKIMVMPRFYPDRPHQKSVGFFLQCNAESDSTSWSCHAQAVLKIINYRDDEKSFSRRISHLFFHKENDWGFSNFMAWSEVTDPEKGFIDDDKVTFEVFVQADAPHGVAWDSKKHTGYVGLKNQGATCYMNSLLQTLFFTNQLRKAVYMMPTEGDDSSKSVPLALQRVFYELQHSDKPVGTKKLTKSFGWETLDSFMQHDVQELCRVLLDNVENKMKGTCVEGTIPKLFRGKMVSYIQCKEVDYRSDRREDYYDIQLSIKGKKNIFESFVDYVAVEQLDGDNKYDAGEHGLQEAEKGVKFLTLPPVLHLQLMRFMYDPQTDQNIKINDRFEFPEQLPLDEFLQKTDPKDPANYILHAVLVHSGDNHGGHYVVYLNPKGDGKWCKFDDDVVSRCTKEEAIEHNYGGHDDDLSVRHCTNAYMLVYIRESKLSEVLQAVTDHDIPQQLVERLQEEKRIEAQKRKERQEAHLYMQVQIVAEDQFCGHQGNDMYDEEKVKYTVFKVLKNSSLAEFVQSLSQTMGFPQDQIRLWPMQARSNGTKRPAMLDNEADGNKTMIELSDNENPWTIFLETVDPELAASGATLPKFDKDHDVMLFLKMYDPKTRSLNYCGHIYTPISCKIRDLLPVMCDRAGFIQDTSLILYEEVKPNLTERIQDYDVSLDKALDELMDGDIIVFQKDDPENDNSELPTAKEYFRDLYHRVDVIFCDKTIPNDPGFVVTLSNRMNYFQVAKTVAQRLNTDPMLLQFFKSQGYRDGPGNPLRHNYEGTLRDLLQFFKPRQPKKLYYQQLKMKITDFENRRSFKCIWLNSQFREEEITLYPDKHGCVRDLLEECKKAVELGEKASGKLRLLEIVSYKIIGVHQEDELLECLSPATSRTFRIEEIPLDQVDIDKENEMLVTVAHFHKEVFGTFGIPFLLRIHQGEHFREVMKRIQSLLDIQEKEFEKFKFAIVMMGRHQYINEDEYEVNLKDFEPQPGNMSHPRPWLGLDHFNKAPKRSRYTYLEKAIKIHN

One may read the IC50 as the concentration at which inhibition is half-maximal. Take `CC1CCCN(S(=O)(=O)c2ccc(-n3cnc(C(=O)NC4CC4)c3)nc2)C1` (stereo not drawn): the IC50 is > 50 µM (inactive).
With `O=C(Cn1cccc(-c2nc(-c3ccccc3)no2)c1=O)Nc1ccccc1F` the figure was > 50 µM (inactive).
Regarding `COc1ccccc1CNC(=O)CCCCn1c(=O)c2ccccc2n(CC(=O)Nc2ccc(C)cc2C)c1=O`, the IC50 is > 50 µM (inactive).
With `Cc1nn(-c2ccccc2)c2c1C1(C(=O)Nc3ccccc31)N1C(=N2)Sc2ccccc21` (stereo not drawn) the figure was 3.39 µM.
With `CCOc1cccc(-c2noc(-c3nn(-c4ccccc4)ccc3=O)n2)c1` the figure was > 50 µM (inactive); with `O=C(Cn1c(=O)n(Cc2ccc(C(=O)NCc3ccco3)cc2)c(=O)c2ccccc21)Nc1ccc2c(c1)OCCO2`, > 50 µM (inactive).
With `Cc1ccc(NC(=O)Cn2cncc(-c3nc(-c4ccccc4)cs3)c2=O)cc1F` the figure was > 50 µM (inactive); with `Cn1c(=O)c2nc(-c3ccc(Cl)cc3)nnc2n(C)c1=O`, > 50 µM (inactive); with `O=C1c2ccccc2-c2nnc(-c3ccncc3)cc21`, > 50 µM (inactive).
With `CSc1ccc(CNC(=O)Cn2nc(C)c3c(C)n(-c4ccccc4)nc3c2=O)cc1`, the IC50 was 45.6 µM.
With `O=C(CSc1nc2c(cnn2-c2ccccc2)c(=O)[nH]1)Nc1ccc(Cl)cc1F` the figure was > 50 µM (inactive); with `Cc1cc(=O)n(C)c2c(O)c3c(cc12)c(C)cc(=O)n3C`, > 50 µM (inactive); with `Cc1ccc2[nH]c(=O)c(-c3nc4ccccn4c3NCc3ccccc3)cc2c1`, > 50 µM (inactive).
With `COc1ccc(NC(=O)Cn2cc(C(=O)c3ccccc3)c(=O)c3cc(Cl)ccc32)cc1OC` the figure was > 50 µM (inactive); with `COc1ccc(CCC(=O)Nc2nnc(C3CC(=O)N(c4ccc(C)cc4)C3)s2)cc1` (stereo not drawn), > 50 µM (inactive).
With `Nc1ccc2oc(-c3cccc(-c4nc5cc(N)ccc5o4)n3)nc2c1` the figure was > 50 µM (inactive); with `Cc1ccc2[nH]c(=O)c(-c3nc4ccc(C)cn4c3NCc3ccc(F)cc3)cc2c1`, 24.6 µM.
As for `CC(C)[C@H]1CC[C@@]2(CO2)[C@H]2C(=O)OCC(C(=O)O)=C[C@H]12`, the IC50 is > 50 µM (inactive).
Turning to `O=c1c(O)c(-c2ccc(O)c(O)c2)oc2cc(O)cc(O)c12`, the half-maximal inhibitory concentration (IC50) is 5.22 µM.
With `Cc1ccc(NC(=O)Cn2cc(C(=O)c3ccccc3)c(=O)c3cc(C)ccc32)cc1` the figure was > 50 µM (inactive); with `N#Cc1cn2c(nc1-c1ccc(Cl)cc1)nc1ccccc12`, > 50 µM (inactive).
With `COc1ccc(C)cc1NC(=O)C1CC(=O)Nc2nc3ccccc3n21` (stereo not drawn) the figure was > 50 µM (inactive); with `O=C(NCCc1nc2ccccc2n1Cc1ccccc1F)c1ccc(Cl)cc1`, > 50 µM (inactive); with `Cc1ccc([N+](=O)[O-])cc1S(=O)(=O)Nc1cc2sc(=O)oc2c2ccccc12`, > 50 µM (inactive).
With `Cc1ccc(C)c(NC(=O)Cn2cc(C(=O)C3CC3)c3ccccc32)c1` the figure was 40.6 µM; with `O=C(COC(=O)c1ccc(NS(=O)(=O)c2ccc(F)c(F)c2)cc1)Nc1ccc(OCc2ccccc2)cc1`, > 50 µM (inactive); with `CCOc1ccc2cc3c(nc2c1)OC(=O)N(Cc1ccc(OC)cc1)C3`, > 50 µM (inactive).
Turning to `O=C(Cn1c(=O)c2ccccc2c2ccccc21)Nc1ccc2c(c1)OCO2`, the IC50 was > 50 µM (inactive).
Turning to `O=C(/C=C/c1ccc(F)cc1)N1CCc2ccccc2C1`, the IC50 is > 50 µM (inactive).
With `O=C(OC1CSc2nc3ccccc3n2C1)c1ccc([N+](=O)[O-])o1` (stereo not drawn) the figure was > 50 µM (inactive); with `Cc1nc(SCC(=O)NC(C)c2ccccc2)c2oc3ccccc3c2n1` (stereo not drawn), > 50 µM (inactive); with `COc1ccc(/C=C/C(=O)Nc2cccc(S(=O)(=O)Nc3ccccc3Cl)c2)c(OC)c1`, > 50 µM (inactive).
With `CC(OC(=O)c1cc(S(=O)(=O)Nc2ccccc2F)ccc1Cl)C(=O)Nc1ccc([N+](=O)[O-])cc1C(F)(F)F` (stereo not drawn) the figure was > 50 µM (inactive); with `Cc1ccccc1NC(=O)c1nc(-c2cn(Cc3ccc(F)cc3)nn2)no1`, > 50 µM (inactive); with `Cc1ccc(NC(=O)Nc2ccc(C)n(CC(=O)Nc3ccc(C)c(C)c3)c2=O)cc1`, 38.8 µM.
With `Cc1cc(NC(=O)Cn2c(=O)n(Cc3ccco3)c(=O)c3ccc(C(=O)NCCc4ccccc4)cc32)n[nH]1` the figure was > 50 µM (inactive); with `COc1ccc(OC)c(NC(=O)c2sc(-c3ccccc3)nc2C)c1`, > 50 µM (inactive); with `O=c1c(S(=O)(=O)c2cc(F)cc(F)c2)c[nH]c2cc(Cl)ccc12`, > 50 µM (inactive).
For `CCOc1ccc(NC(=O)Cn2c(=O)n(CCCCCC(=O)NCc3ccc(F)cc3)c(=O)c3sccc32)cc1`, the IC50 is > 50 µM (inactive).
With `CC(C)=CCC/C(C)=C/COc1ccc(/C=C2\C(=O)N(O)[C@@H](C)C(=O)N2O)cc1` the figure was > 50 µM (inactive); with `Cn1nc(C(=O)N2CCC(c3ccccc3)C2)c2c1-c1ccsc1CC2` (stereo not drawn), > 50 µM (inactive).
With `Cc1cccc(N2C(=O)/C(=C\c3cc(C#N)n(C)c3C)c3ccccc3C2=O)c1` the figure was > 50 µM (inactive); with `Cc1cccc(-n2ccnc(SCC(=O)Nc3ccc(Cl)cc3F)c2=O)c1`, > 50 µM (inactive).
With `CC/C=C\C/C=C\C/C=C\CCCCCCCC(=O)O`, the IC50 was 25.6 µM.
Take `Cn1c(=O)c2ncnnc2n(C)c1=O`: the IC50 was > 50 µM (inactive).
With `O=C(COc1ccccc1)Nc1ccc(-c2nc3cnccc3o2)c(O)c1` the figure was > 50 µM (inactive); with `COc1ccc(NC(=O)CC(=O)c2ccc([N+](=O)[O-])cc2)cc1S(=O)(=O)Nc1ccc(Cl)cc1`, > 50 µM (inactive).
With `COC(=O)c1ccccc1NC(=O)Cn1c(=O)n(CCCC(=O)NCc2ccco2)c(=O)c2ccccc21`, the IC50 was > 50 µM (inactive).
With `COc1ccc(NC(=O)Cn2c(=O)n(CCCC(=O)NC3CCCC3)c(=O)c3cc(Cl)ccc32)c(OC)c1` the figure was > 50 µM (inactive).
With `COc1c(O)cc(CC(=O)O)c(C(C)=O)c1O` the figure was 47.4 µM.
With `O=C(/C=C/c1c(F)cccc1Cl)N1CCc2ccccc2C1` the figure was > 50 µM (inactive); with `Cn1c2ccccc2c(=O)c2c(=O)n(Cc3ccco3)c(-c3ccccc3F)nc21`, > 50 µM (inactive); with `O=c1[nH]c(C2CCN(S(=O)(=O)c3ccc(S(=O)(=O)NC4CCCCC4)cc3)CC2)nc2c1nnn2Cc1ccc(F)cc1`, > 50 µM (inactive).
With `Cc1ccc(NC(=O)c2ccc3nn(CC(=O)Nc4ccc(F)cc4F)c(=O)n3c2)cc1`, the IC50 is > 50 µM (inactive).
Take `Cn1cc(NC(=O)Nc2cccc(C(F)(F)F)c2)c2ccccc2c1=O`: the IC50 was > 50 µM (inactive).
With `CO/C=C/C(=O)c1cc2cnc3c(=N)cc(NC(C)=O)c([nH]1)c23` the figure was 9.52 µM.
With `O=c1[nH]c(C2CCN(S(=O)(=O)c3ccc(S(=O)(=O)NC4CC4)cc3)CC2)nc2c1nnn2Cc1c(Cl)cccc1Cl` the figure was > 50 µM (inactive).
Turning to `CC(C)CC1NC(=O)C2CCCN2C1=O` (stereo not drawn), the IC50 is > 50 µM (inactive).
